Assay results published in article PMC8694169 (Microbiology Spectrum, 2021).
Where two headings read alike, the source gives them in different places. Where a SMILES comes first, the peptide text is derived from it. Where no end group is shown, it is not given here.

Legend:
HLA-A*24:02 [1] = biological target: T1, HLA-A*24:02 (Homo sapiens, UniProt P04439, D101N/D140Y/D185E/E176V/E190D/F33S/G103R/G107R/I119L/I121M/I306V/K335N/L105A/L180Q/L300P/N151K/N90K/Q86E/Q94H/R106L/R138H/R89G/T104I/T345S/V100E/W191G/Y123F); experiment: cell-based; assay type: binding
[2] = test system: IFN-γ-producing CD8+ T cells; experiment: Intracellular IFN-γ staining (ICS) of spleen CD8+ T cells after immunization with liposomal peptides; assay type: in vivo, HLA-A*24:02 transgenic mice; settings: mice immunized with liposomal peptides + CpG; result in words
human lymphocytes = settings: epitopes of same sequence submitted as HLA-A*24:02-restricted pp1a-specific CTL epitopes; ref Virus Pathogen Database and Analysis Resource; cited from earlier work
HLA-A*24:02 [3] = biological target: T1, HLA-A*24:02; settings: ref Virus Pathogen Database and Analysis Resource; cited from earlier work
IFN-γ+ CD8+ T cells = experiment: Comparison of conserved top 4 peptides, ICS after immunization with 4-peptide mixture in liposomes; assay type: in vivo, HLA-A*24:02 transgenic mice; settings: eight mice immunized with mixture of pp1a-1417, -3104, -3792, -4229 in liposomes with CpG; spleen cells + peptide 5 h; one-way ANOVA; Fig. 5A
CD107a+ CD8+ T cells = experiment: Comparison of conserved top 4 peptides, CD107a on CD8+ T cells; assay type: in vivo, HLA-A*24:02 transgenic mice; settings: eight mice immunized with 4-peptide mixture in liposomes with CpG; spleen cells + 50 μM peptide 6 h; one-way ANOVA; Fig. 5B
[4] = […], mean ± SD, triplicate, repeated twice, ND = not detected, read-out: BL50 (half-maximal binding level, peptide concentration that yields 50% relative binding)

Compound	EC50 (HLA-A*24:02 [1]; [4])	detection of IFN-γ-producing CD8+ T cells in immunized mice [2]	other results
FYWFFSNYL [pp1a-3153]	3.9 ± 1.3 µM	significant numbers	
YYHTTDPSF [pp1a-1634]	0.04 µM		
LYIDINGNL [pp1a-1255]	40.4 ± 8.6 µM	significant numbers	
NFSKLINII [pp1a-2222]	181 ± 32.5 µM		
TFDNLKTLL [pp1a-1552]	96.1 ± 1.6 µM		
FFSYFAVHF [pp1a-2350]	1.4 ± 0.1 µM	significant numbers	
DYKHYTPSF [pp1a-1971]	58.4 ± 11.7 µM		
AFYILPSII [pp1a-1352]	64.4 ± 9.2 µM		
SYSGQSTQL [pp1a-1515]	45.8 ± 10.5 µM		
KFVCDNIKF [pp1a-1929]	61.7 ± 1.6 µM		
IFGTVYEKL [pp1a-616]	122 ± 18 µM		
LYDKLVSSF [pp1a-1182]	1 ± 0.3 µM	significant numbers	result in T cell assays using human lymphocytes (human lymphocytes): positive
TFCAGSTFI [pp1a-2457]	127 ± 20.2 µM		
CC(C)C[C@H](NC(=O)[C@H](CC(C)C)NC(=O)[C@H](CS)NC(=O)[C@H](Cc1ccccc1)NC(=O)[C@H](CC(C)C)NC(=O)CNC(=O)[C@H](Cc1ccccc1)NC(=O)[C@H](Cc1ccc(O)cc1)NC(=O)[C@@H](N)CS)C(=O)O [pp1a-3792] (H-CYFGLFCLL-OH; N-terminus and C-terminus assumed)		significant numbers	
KYLYFIKGL [pp1a-4226]			EC50 (HLA-A*24:02 [1]; SD): 109 ± 1.3 µM
PYCYDTNVL [pp1a-2931]	6.8 ± 1 µM		
YYRSLPGVF [pp1a-3010]	122 ± 18.8 µM		
VYEKLKPVL [pp1a-620]	264 ± 21.4 µM		
DFVKATCEF [pp1a-335]	127 ± 3.8 µM		
MYASAVVLL [pp1a-3684]	0.4 ± 0.1 µM	significant numbers	result in T cell assays using human lymphocytes (human lymphocytes): negative; result in the binding assay (HLA-A*24:02 [3]): positive
TFNGECPNF [pp1a-265]	1.7 ± 0.4 µM	significant numbers	result in T cell assays using human lymphocytes (human lymphocytes): positive

Compound	EC50 (HLA-A*24:02 [1]; [4])	detection of IFN-γ-producing CD8+ T cells in immunized mice [2]	other results
FYLTNDVSF [pp1a-3114]	0.01 µM	significant numbers	result in T cell assays using human lymphocytes (human lymphocytes): negative; result in the binding assay (HLA-A*24:02 [3]): positive
KFKEGVEFL [pp1a-634]	79.6 ± 6.6 µM	significant numbers	
MFLARGIVF [pp1a-3752]	24.2 ± 1.5 µM	significant numbers	
LYCIDGALL [pp1a-1845]	38.5 ± 8.2 µM	significant numbers	
DYGARFYFY [pp1a-1417]	16.1 ± 0.8 µM	significant numbers	
QYELKHGTF [pp1a-1813]	141 ± 8 µM		
MFVKHKHAF [pp1a-3627]	241 ± 33.6 µM		
AFEKMVSLL [pp1a-3907]	114 ± 3.1 µM		
FYENAFLPF [pp1a-3606]	0.02 ± 0.01 µM	significant numbers	
TFFKLVNKF [pp1a-677]	55.9 ± 3.3 µM		
LFVAAIFYL [pp1a-2781]	183 ± 8.2 µM		
TFHLDGEVI [pp1a-1543]	100 ± 6.8 µM		
AFVETVKGL [pp1a-486]	278 ± 49.8 µM		
SYGADLKSF [pp1a-135]	104 ± 17.7 µM		
IYLYLTFYL [pp1a-3108]	100 ± 13.8 µM		
LFLMSFTVL [pp1a-3084]	100 ± 7.6 µM		
NYLKRRVVF [pp1a-3159]	114 ± 5.3 µM		
WFLLLSVCL [pp1a-2232]	279 ± 12.6 µM		
PFWITIAYI [pp1a-3137]	103 ± 8.4 µM		
MFDAYVNTF [pp1a-2590]	7.7 ± 0.6 µM	significant numbers	
AFLPFAMGI [pp1a-3610]	183 ± 8.2 µM		

Compound	EC50 (HLA-A*24:02 [1]; [4])	detection of IFN-γ-producing CD8+ T cells in immunized mice [2]	other results
VFLFVAAIF [pp1a-2779]	8.6 ± 0.4 µM	significant numbers	
YFIKGLNNL [pp1a-4229]	32.1 ± 1.9 µM	significant numbers	
YYTSNPTTF [pp1a-1536]	0.05 µM		
YYKKDNSYF [pp1a-1899]	0.3 µM	significant numbers	result in T cell assays using human lymphocytes (human lymphocytes): positive
YFTEQPIDL [pp1a-1906]	113 ± 9.4 µM		
AFGLVAEWF [pp1a-2320]	135 ± 39.1 µM		
NFTIKGSFL [pp1a-3396]	134 ± 7.6 µM		
GYVTHGLNL [pp1a-1451]	109 ± 8.9 µM		
MFTPLIQPI [pp1a-3030]	251 ± 88.7 µM		
NFNQHEVLL [pp1a-1137]	55.3 ± 2 µM		
DYQGKPLEF [pp1a-954]	126 ± 23.9 µM		
SYLFQHANL [pp1a-1733]	3 ± 0.4 µM		
FYVLGLAAI [pp1a-2338]	0.7 ± 0.1 µM	significant numbers	
GYKSVNITF [pp1a-835]	0.1 µM	significant numbers	
QYGRSGETL [pp1a-96]	124 ± 10.9 µM		
VYSVIYLYL [pp1a-3104]	0.5 µM	significant numbers	dominance in induction of peptide-specific IFN-γ+ CD8+ T cells among conserved top 4 peptides (IFN-γ+ CD8+ T cells): far superior to all other peptides; dominance in CD107a induction of CD8+ T cells among conserved top 4 peptides (CD107a+ CD8+ T cells): statistically predominant over pp1a-1417 and -4229; result in T cell assays using human lymphocytes (human lymphocytes): negative; result in the binding assay (HLA-A*24:02 [3]): positive
DYLVSTQEF [pp1a-3812]			EC50 (HLA-A*24:02 [1]; SD): 0.9 ± 0.1 µM
KFLTENLLL [pp1a-1247]	33.4 ± 1.9 µM		
AYILFTRFF [pp1a-2330]	0.8 ± 0.1 µM	significant numbers	result in T cell assays using human lymphocytes (human lymphocytes): positive
